Measurements taken from patent US20250161223A1, “PHARMACEUTICAL FORMULATION” (Novartis AG, priority 2022, published 2025).

Columns and labels:
[1] = Chemical compatibility study of drug substance alone and binary mixtures (HPLC); format: physicochemical; details: 4 weeks, 40° C./75% RH
Procedure: For HPLC in Table 1, the following conditions were applied: • Mobile Phase A: 0.1% Trifluoroacetic acid in Water. • Mobile Phase B: Water:Acetonitrile(50:950 v/v) • Column: Aquity HSS T3, • Column Dimension: Length—100 mm, Internal Diameter—2.1 mm, Particle size—1.8 μm • Flow Rate: 0.5 mL/min • Detection: 220 nm • Column Temperature: 40° C. • Auto sampler Temperature: 22° C. • Injection Volume: 4 μL • Run Time: 13.0 minutes • Program: Gradient […] All excipients except PVP-K30 may still be suitable for formulation when used in ratios more realistic in a final formulation (see Example 2).

[2] = Solid form conversion of slurry in water; format: physicochemical; details: 30% w/w slurry in water; after 5 hrs
From the text: WG based core tablets can easily be converted into film-coated tablets with conventional coating operations. […] Looking at an unknown landscape of polymorphs for TNO155, WG was not pursued further.

In the case of C[C@@H]1OCC2(CCN(c3cnc(Sc4ccnc(N)c4Cl)c(N)n3)CC2)[C@@H]1N [TNO155-BBA, (3S,4S)-8-(6-amino-5-((2-amino-3-chloropyridin-4-yl)thio)pyrazin-2-yl)-3-methyl-2-oxa-8-azaspiro[4.5]decan-4-amine succinate (1:1) hemihydrate form HA], the “Assay of active ingredient” value ([1]; closed) is reported as 98.6%, the “Assay of active ingredient” value ([1]; open) is reported as 98.7% and the “Solid form stability in slurry” value [2] is reported as “solid form conversion”.
